Laboratory results from ChEMBL document CHEMBL1201862, “PubChem BioAssay data set” (2004).
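All cell lines were grown in 96-well plates and treated with compound for 48 hours. The concentration for 50% growth inhibition is given as GI50.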 The source made the active and inactive calls. No stated cut-off is given here; in the data, active = GI50 up to about 1.1 µM and inactive = higher.

Assays:
Assay in all cases: DTP human tumour cell line panel, 48 h
[1] = test system: Hs-578T
[2] = test system: TK-10
[3] = test system: A498
[4] = test system: NCI-H460
[5] = test system: SK-MEL-2
[6] = test system: U-251
[7] = test system: HT-29
[8] = test system: UO-31
[9] = test system: DU-145
[10] = test system: NCI-H522
[11] = test system: SR
[12] = test system: HCT-116
[13] = test system: RXF 393
[14] = test system: UACC-257
[15] = test system: OVCAR-5
[16] = test system: IGROV-1
[17] = test system: SK-MEL-28
[18] = test system: SF-539
[19] = test system: COLO 205
[20] = test system: MOLT-4

Compound | GI50 [1] | GI50 [2] | GI50 [3] | GI50 [4] | GI50 [5] | GI50 [6] | GI50 [7] | GI50 [8] | GI50 [9] | GI50 [10] | GI50 [11] | GI50 [12] | GI50 [13] | GI50 [14] | GI50 [15] | GI50 [16] | GI50 [17] | GI50 [18] | GI50 [19] | GI50 [20]
C[N+](C)(C)/N=C\c1ccc(O)c(O)c1 | > 100 µM (inactive) | > 100 µM (inactive) | > 100 µM (inactive) | > 100 µM (inactive) | > 100 µM (inactive) | > 100 µM (inactive) | > 100 µM (inactive) | > 100 µM (inactive) | > 100 µM (inactive) | > 100 µM (inactive) | > 100 µM (inactive) | > 100 µM (inactive) | > 100 µM (inactive) | > 100 µM (inactive) | > 100 µM (inactive) | > 100 µM (inactive) | > 59.4 µM (inactive) | > 100 µM (inactive) | > 100 µM (inactive) | > 100 µM (inactive)
CN(CCNC(=O)c1c[nH]c2c1ccc1ccccc12)CCNC(=O)c1c[nH]c2c1ccc1ccccc12 | 2.94 µM (inactive) | 3.21 µM (inactive) | 1.53 µM (inactive) | 1.96 µM (inactive) | 1.99 µM (inactive) | 2 µM (inactive) | 1.87 µM (inactive) | 1.38 µM (inactive) | 1.99 µM (inactive) | 1.89 µM (inactive) | 2.08 µM (inactive) | 1.76 µM (inactive) | 1.14 µM (inactive) | 1.79 µM (inactive) | 4.74 µM (inactive) | 1.41 µM (inactive) | 2 µM (inactive) | 1.15 µM (inactive) | 1.61 µM (inactive) | 2.01 µM (inactive)
COc1cc2c(cc1OC)C(C1CC1)ON(C)CC2 (stereo not given) | > 100 µM (inactive) | > 100 µM (inactive) | > 100 µM (inactive) | > 100 µM (inactive) | > 100 µM (inactive) | > 100 µM (inactive) | > 100 µM (inactive) | > 100 µM (inactive) | > 100 µM (inactive) | > 100 µM (inactive) | > 100 µM (inactive) | > 100 µM (inactive) | > 100 µM (inactive) | > 100 µM (inactive) | > 100 µM (inactive) | > 100 µM (inactive) | > 100 µM (inactive) | > 100 µM (inactive) | > 100 µM (inactive) | > 100 µM (inactive)
Nc1ccc(S(=O)(=O)c2ccc(/N=[N+](\[O-])c3ccc(S(=O)(=O)c4ccc(N)cc4)cc3)cc2)cc1 | 8.39 µM (inactive) | > 44.1 µM (inactive) | 30.8 µM (inactive) | 66.5 µM (inactive) | > 49.1 µM (inactive) | 27.7 µM (inactive) | > 100 µM (inactive) | > 100 µM (inactive) | 81.7 µM (inactive) | 17.9 µM (inactive) | > 61.4 µM (inactive) | 46.5 µM (inactive) | 7.66 µM (inactive) | > 91.8 µM (inactive) | > 100 µM (inactive) | > 92.9 µM (inactive) | > 80.4 µM (inactive) | 18.9 µM (inactive) | > 100 µM (inactive) | > 100 µM (inactive)
NC(=S)N1N=C2c3ccccc3CCC[C@H]2[C@@H]1c1ccccc1 | 0.552 µM (active) | 10.3 µM (inactive) | 3.1 µM (inactive) | 1.07 µM (active) | 0.236 µM (active) | 2.33 µM (inactive) | 0.867 µM (active) | 1.9 µM (inactive) | 1.54 µM (inactive) | 0.361 µM (active) | 0.249 µM (active) | 1.26 µM (inactive) | 1.7 µM (inactive) | 2.21 µM (inactive) | 9.57 µM (inactive) | 2.36 µM (inactive) | 10.5 µM (inactive) | 0.518 µM (active) | 1.67 µM (inactive) | 0.638 µM (active)
O=c1c2cc(I)ccc2nc(Sc2ccc([N+](=O)[O-])cc2[N+](=O)[O-])n1Cc1ccccc1 | 4.78 µM (inactive) | 7.59 µM (inactive) | 7.03 µM (inactive) | 4.24 µM (inactive) | 1.85 µM (inactive) | 3.81 µM (inactive) | 3.24 µM (inactive) | 2.26 µM (inactive) | 2.96 µM (inactive) | 1.04 µM (active) | 0.394 µM (active) | 1.26 µM (inactive) | 2.38 µM (inactive) | 4.65 µM (inactive) | 9.02 µM (inactive) | 2.02 µM (inactive) | 7.14 µM (inactive) | 2.25 µM (inactive) | 5.14 µM (inactive) | 1.39 µM (inactive)
COC(=O)C1(Cc2ccc(C)cc2)Cc2c(C)cccc2C1=O (stereo not given) | 15.9 µM (inactive) | 26.2 µM (inactive) | 13.7 µM (inactive) | 17.6 µM (inactive) | 12.9 µM (inactive) | 17.1 µM (inactive) | 8.83 µM (inactive) | 24.7 µM (inactive) | 15.3 µM (inactive) | 11.2 µM (inactive) | 7.24 µM (inactive) | 13.3 µM (inactive) | 9.71 µM (inactive) | 22.1 µM (inactive) | 24.6 µM (inactive) | 16.4 µM (inactive) | 26 µM (inactive) | 16.4 µM (inactive) | 12.1 µM (inactive) | 20 µM (inactive)
CC(=O)OC1CCC2(C)C(=CCC3C2CCC2(C)C(C(C)C(=O)O)CCC32)C1 (stereo not given) | > 100 µM (inactive) | > 100 µM (inactive) | 59.7 µM (inactive) | 63 µM (inactive) | > 100 µM (inactive) | 88.9 µM (inactive) | 48.6 µM (inactive) | 92 µM (inactive) | > 100 µM (inactive) | 58.6 µM (inactive) | > 100 µM (inactive) | 75.9 µM (inactive) | 69.5 µM (inactive) | > 100 µM (inactive) | > 100 µM (inactive) | > 100 µM (inactive) | > 100 µM (inactive) | > 100 µM (inactive) | 39.9 µM (inactive) | > 100 µM (inactive)
O=C(/C=C/c1ccc(-c2ccccc2[N+](=O)[O-])o1)NCc1ccc(C(=O)NCCc2ccccc2)cc1 | > 100 µM (inactive) | > 100 µM (inactive) | 29.3 µM (inactive) | > 100 µM (inactive) | 21.2 µM (inactive) | > 100 µM (inactive) | > 100 µM (inactive) | > 100 µM (inactive) | > 100 µM (inactive) | > 100 µM (inactive) | 5.62 µM (inactive) | > 100 µM (inactive) | > 100 µM (inactive) | 46.7 µM (inactive) | > 100 µM (inactive) | > 100 µM (inactive) | > 100 µM (inactive) | > 100 µM (inactive) | > 100 µM (inactive) | > 100 µM (inactive)
CCCC(=O)OC[n+]1cccc(-c2c(COC(=O)NC(C)C)c(COC(=O)NC(C)C)c3n2CCC3)c1 | > 100 µM (inactive) | > 72.4 µM (inactive) | 28.5 µM (inactive) | 29.6 µM (inactive) | > 82.6 µM (inactive) | > 60.7 µM (inactive) | > 68.2 µM (inactive) | 38.7 µM (inactive) | 43.2 µM (inactive) | 30.4 µM (inactive) | 5.75 µM (inactive) | 19.7 µM (inactive) | 23.1 µM (inactive) | > 100 µM (inactive) | 97.7 µM (inactive) | > 46.3 µM (inactive) | > 100 µM (inactive) | 28.8 µM (inactive) | 73.3 µM (inactive) | 13.6 µM (inactive)
Cc1ccc2c(n1)C(=O)c1cc(C)c(C)cc1C2=O | 44.2 µM (inactive) | > 100 µM (inactive) | > 100 µM (inactive) | 10.6 µM (inactive) | > 100 µM (inactive) | 27.4 µM (inactive) | 36.9 µM (inactive) | 57.8 µM (inactive) | > 100 µM (inactive) | 20.6 µM (inactive) | 30.2 µM (inactive) | 47.6 µM (inactive) | 34 µM (inactive) | 30.4 µM (inactive) | 68.9 µM (inactive) | 63.1 µM (inactive) | > 100 µM (inactive) | > 100 µM (inactive) | 32 µM (inactive) | > 100 µM (inactive)
O=C1c2cc3c(cc2NC(c2ccccc2F)C1O)OCO3 (stereo not given) | 18.1 µM (inactive) | 21 µM (inactive) | 13.3 µM (inactive) | 9.46 µM (inactive) | 24.3 µM (inactive) | 14.9 µM (inactive) | 17.6 µM (inactive) | 27.7 µM (inactive) | 35 µM (inactive) | 10.5 µM (inactive) | 3.74 µM (inactive) | 3.97 µM (inactive) | 22.4 µM (inactive) | 22.9 µM (inactive) | 22.1 µM (inactive) | 13.5 µM (inactive) | 18.5 µM (inactive) | 12.2 µM (inactive) | 5.3 µM (inactive) | 19.5 µM (inactive)
Nc1ccc(C2SCC(=O)N2NS(=O)(=O)c2cccc(C(=O)O)c2)cc1 (stereo not given) | > 100 µM (inactive) | > 100 µM (inactive) | > 100 µM (inactive) | > 100 µM (inactive) | > 100 µM (inactive) | > 100 µM (inactive) | > 100 µM (inactive) | > 100 µM (inactive) | > 100 µM (inactive) | > 100 µM (inactive) | 12.1 µM (inactive) | > 100 µM (inactive) | > 100 µM (inactive) | > 100 µM (inactive) | > 100 µM (inactive) | > 100 µM (inactive) | > 100 µM (inactive) | > 100 µM (inactive) | > 100 µM (inactive) | > 100 µM (inactive)
CC(=O)Nc1ccc(-c2nc3cc(Cl)ccc3o2)cc1 | > 50 µM (inactive) | > 50 µM (inactive) | > 50 µM (inactive) | > 50 µM (inactive) | > 50 µM (inactive) | 45.7 µM (inactive) | > 50 µM (inactive) | > 50 µM (inactive) | > 50 µM (inactive) | > 50 µM (inactive) | > 50 µM (inactive) | > 50 µM (inactive) | > 50 µM (inactive) | > 50 µM (inactive) | > 50 µM (inactive) | > 50 µM (inactive) | > 50 µM (inactive) | > 50 µM (inactive) | > 50 µM (inactive) | > 50 µM (inactive)
